Test results published in patent publication US12358896B2, “LRRK2 inhibitors and methods of making and using thereof” (DENALI THERAPEUTICS INC., priority 2019, dated 2025).

Tests used:
[1] = Metabolic stability in human liver microsomes (Biological Example 2); type: in vitro ADME; conditions: hepatic clearance (CLhep) scaled from human liver microsomes, 1 μM, well-stirred model
Protocol: Metabolic stability of select compounds was evaluated in human liver microsomes (from Corning or XenoTech, LLC) using a 96-well plate assay format. Compounds were incubated at 37° C. at 1 μM final concentration in the microsomal matrix (0.5 mg/mL total protein) in the presence or absence of NADPH cofactor. An NADPH regenerating system, comprised of NADP, MgCl2, isocitric acid, and isocitrate dehydrogenase, was used in the assay. Enzymatic reactions were conducted for 0, 5, 10, 20, 30, or 60 min before termination by addition of acetonitrile containing tolbutamide and labetalol internal standards (100 ng/mL). After shaking for 10 min, plates were subjected to centrifugation (4000 rpm at 4° C.) for 20 min and supernatants mixed 1:3 with HPLC grade water. Samples were analyzed by LC-MS/MS using appropriate MRM transitions for each analyte and internal standard (IS). Analyte/IS peak area ratios were used to determine percent compound remaining at each time point. Intrinsic clearance (Clint; expressed as mL·min^−1·mg^−1) was calculated from the first order elimination constant (k, min^−1) of test article decay and the volume of the incubation. These values were scaled to intrinsic organ clearance (Clint) using human specific scaling factors (48.8 mg microsomal protein per g liver; 25.7 g liver per kg body weight). Organ Clint was subsequently converted to hepatic clearance, HLM, (CLhep, mL·min-1·kg-1) using the well-stirred model of hepatic elimination, where Qh is human hepatic blood flow (20.7 mL·min-1·kg-1).
CLhep is the projected human clearance in the liver based on the above in vitro assay. A lower value is indicative of less compound being removed by the liver.

[2] = biological target: T1, MDR1 (P-glycoprotein) (Homo sapiens, UniProt P08183); test: MDR1-MDCK permeability / efflux (Biological Example 3); type: in vitro ADME; conditions: MDR1-MDCK cells, pH 7.4; for efflux ratio at 1 μM: dog
T1 construct: expressed in transfected cells; host or cells: MDR1-MDCK cells
T1 sequence (P08183 whole entry): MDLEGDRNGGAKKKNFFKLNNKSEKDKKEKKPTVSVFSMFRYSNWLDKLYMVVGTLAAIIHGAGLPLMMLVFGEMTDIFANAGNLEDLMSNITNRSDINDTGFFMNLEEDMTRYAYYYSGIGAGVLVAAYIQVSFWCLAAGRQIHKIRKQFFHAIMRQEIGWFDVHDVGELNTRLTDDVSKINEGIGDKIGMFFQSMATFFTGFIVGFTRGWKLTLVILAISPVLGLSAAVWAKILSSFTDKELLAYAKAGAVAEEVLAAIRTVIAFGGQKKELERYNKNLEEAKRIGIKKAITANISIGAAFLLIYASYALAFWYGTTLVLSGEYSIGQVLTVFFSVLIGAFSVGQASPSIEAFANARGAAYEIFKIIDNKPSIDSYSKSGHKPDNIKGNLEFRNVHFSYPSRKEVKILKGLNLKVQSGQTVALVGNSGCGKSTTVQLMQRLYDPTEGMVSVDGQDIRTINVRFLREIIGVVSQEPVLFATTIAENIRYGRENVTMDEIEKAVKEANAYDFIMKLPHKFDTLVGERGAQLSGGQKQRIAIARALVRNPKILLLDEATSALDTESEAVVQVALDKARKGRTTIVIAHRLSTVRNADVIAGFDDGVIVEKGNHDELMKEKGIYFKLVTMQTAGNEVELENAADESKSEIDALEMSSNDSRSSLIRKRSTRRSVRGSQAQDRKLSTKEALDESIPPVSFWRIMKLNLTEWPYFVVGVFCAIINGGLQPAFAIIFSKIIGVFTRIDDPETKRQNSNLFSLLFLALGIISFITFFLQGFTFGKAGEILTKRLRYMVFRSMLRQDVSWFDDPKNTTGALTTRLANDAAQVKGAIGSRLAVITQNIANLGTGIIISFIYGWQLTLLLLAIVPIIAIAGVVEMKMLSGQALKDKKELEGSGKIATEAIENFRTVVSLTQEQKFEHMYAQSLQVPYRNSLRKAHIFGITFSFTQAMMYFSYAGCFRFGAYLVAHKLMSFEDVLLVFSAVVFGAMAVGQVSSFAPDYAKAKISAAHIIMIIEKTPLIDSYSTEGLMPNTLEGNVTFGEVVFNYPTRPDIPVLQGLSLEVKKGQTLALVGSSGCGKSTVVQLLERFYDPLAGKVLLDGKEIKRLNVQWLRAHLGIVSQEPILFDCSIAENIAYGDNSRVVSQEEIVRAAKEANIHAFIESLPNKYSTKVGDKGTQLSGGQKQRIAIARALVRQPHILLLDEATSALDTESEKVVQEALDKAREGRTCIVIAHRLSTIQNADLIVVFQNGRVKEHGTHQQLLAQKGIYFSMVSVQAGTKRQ
Protocol: The blood brain barrier (BBB) separates circulating blood from the extracellular fluid of the central nervous system (CNS). The passive membrane permeability (Papp) and MDR1 (P-glycoprotein) substrate efflux potential are determined using the MDR1-MDCK cell line as an in vitro model of the effective permeability of a compound through the BBB. A bidirectional assay was conducted in pre-plated MDR1-MDCK cells using a 12 or 96-well plate in the absence or presence of MDR1 inhibitor (GF120918 or Valspodar). Assays were run in duplicate in transport buffer (HBSS, pH 7.4) for 90 or 120 min (minutes) at 37° C., using a test article concentration of 1 μM. Monolayer integrity was confirmed using Lucifer yellow, and appropriate positive controls for passive permeability and MDR1 transport were included in each experiment. Following incubation, samples from donor and receiver compartments are removed and quenched with acetonitrile containing an appropriate internal standard (IS). Protein was precipitated by centrifugation for 10 min at 3220 g, and supernatants diluted in ultra-pure water (if necessary) prior to analysis by LC-MS/MS using appropriate MRM transitions for analytes and IS. Papp (apparent permeability expressed in cm/sec [centimeter/second]) values were calculated according to the following equation:
[formula] where VR is the solution volume in the receiver chamber (apical or basolateral side), Area is the surface area for the insert membrane), Time is incubation time expressed in seconds, CR is the peak area ratio (analyte/IS) in the receiver chamber, CA is the average of the initial and final concentrations in the donor chamber, and Co is the initial peak area ratio in the donor chamber. Papp was determined in both the apical to basolateral (A→B) and basolateral to apical (B→A) directions.
Monolayer efflux ratios (ER) were derived using the following equation: […]
Compounds with an MDR1-MDCK efflux ratio above 20 are not expected to cross the blood brain barrier.

Structure (SMILES)	HLM Avg [1]	efflux ratio at 1 μM [2]	MDCK-MDR1 Efflux Avg ([2]; efflux ratio, 1 μM)
CCNc1nc(Nc2cn([C@H]3C[C@H]3C(N)=O)nc2C2CC2)ncc1C(F)(F)F (single isomer, unassigned) [Example 7, (1,2-cis)-2-(3-cyclopropyl-4-((4-(ethylamino)-5-(trifluoromethyl)pyrimidin-2-yl)amino)-1H-pyrazol-1-yl)cyclopropanecarboxamide]	0.216 L/h/kg	110	110
CCNc1nc(Nc2cc([C@H]3C[C@H]3C(N)=O)nn2C2CC2)ncc1C(F)(F)F [Comparative Example A, reference compound]	0.156 L/h/kg	144	–
